The values that follow come from patent publication US6558900B2, “Regulation of apoptosis and in vitro model for studies thereof” (Emory University, priority 1996, dated 2003).

In one assay the test system is HeLa cells. The assay can be described thus: Staurosporine treatment of HeLa cells: cytochrome c in S-cytosol and PARP cleavage. The format is cell-based, human. As to conditions: 1 μM, 6 hr. How it is done: HeLa cells were treated as described in FIG. 9. On day 2, staurosporine at a final concentration of 1 μM was added to the medium as indicated. After incubation at 37° C. for 6 hr, the cells were harvested and S-cytosols were prepared as described in FIG. 9. In FIG. 10A, a 50 μg aliquot of HeLa cell S-100 as in FIGS. 1-7 (lane 1), or S-cytosol from HeLa cells (lane 2), or S-cytosol from HeLa cells treated with staurosporine for 6 hr. In lane 4, aliquot of 0.2 μg of Apaf-2 purified through Mono S column step. Proteins were separated using 15% SDS-PAGE, transferred to a nitrocellulose filter, and probed with a monoclonal anti-cytochrome c antibody and the antigen/antibody complex was visualized by the ECL method as described herein. Kodak X-OMAT AR X-ray film was exposed for 15 seconds. The arrow denotes the position of cytochrome c; X denotes protein bands cross-reacting with this antibody. In FIG. 10B, aliquots containing 4.5 μg of S-cytosol from HeLa cells (−staurosporine) or HeLa cells treated with 1 μM staurosporine for 6 hr (+staurosporine) were incubated with 10 μl aliquots of in vitro translated, 35S-labeled PARP for 30 min at 30° C. in a volume of 20 μl of buffer A. Samples were then subjected to 12% SDS-PAGE, transferred to a nitrocellulose filter, and film was exposed for 4 hr at room temperature.
HeLa cells were treated with staurosporine. […]

In a further assay the test system is variety of cell types. Conditions: cited from earlier work.
For another assay, the system named is U937 cells. The assay can be described thus: Staurosporine treatment of human monoblastic U937 cells. The assay is classed as cell-based.
For a further assay, the system named is hamster liver nuclei. The assay can be described thus: DNA fragmentation assay (HeLa S-100 incubated with hamster liver nuclei). The assay is classed as biochemical. Conditions: 1 mM nucleotide, 37° C., 2 hr. How it is done:
FIGS. 1A-1D illustrate dATP-dependent activation of CPP32 and DNA fragmentation in vitro. Aliquots (10 μl) of HeLa cell S-100 (50 μg) were incubated alone (lane 1), in the presence of 1 mM ATP (lane 2), or in the presence of 1 mM dATP (lane 3) at 30° C. for 1 hr in a final volume of 20 μl of buffer A. FIG. 1A, samples were subjected to SDS-PAGE and transferred to a nitrocellulose filter, probed with a monoclonal anti-CPP32 antibody, and the antigen/antibody complex was visualized by the ECL method. The filter was exposed to Kodak X-OMAT AR X-ray film for 1 min. In FIG. 1B, an aliquot of 10 μl of in vitro translated, ^35S-labeled PARP was added to each reaction. After 5 min, the samples were subjected to SDS-PAGE and transferred to a nitrocellulose filter. The filter was exposed to film for 2 hr at room temperature. In FIG. 1C, a 5 μl aliquot of in vitro translated, ^35S-labeled SREBP-2 was added to each reaction. After incubation at 30° C. for 30 min, the samples were subjected to SDS-PAGE, the gel was dried and exposed to film for 2 hr at room temperature. […]
FIGS. 2A-2B illustrate the nucleotide specificity for in vitro activation of CPP32 and DNA fragmentation. […] The DNA was isolated, analyzed by 2% agarose gel electrophoresis and visualized by ethidium bromide staining. […]

The next assay deals with CPP32. Description: Activation of endogenous CPP32 in HeLa cell S-100 (Western blot; cleavage of 35S-labeled PARP and SREBP-2). The assay is classed as biochemical, human. Conditions: 1 mM nucleotide, 30° C., 1 hr, Western blot. How it is done:
FIGS. 1A-1D illustrate dATP-dependent activation of CPP32 and DNA fragmentation in vitro. Aliquots (10 μl) of HeLa cell S-100 (50 μg) were incubated alone (lane 1), in the presence of 1 mM ATP (lane 2), or in the presence of 1 mM dATP (lane 3) at 30° C. for 1 hr in a final volume of 20 μl of buffer A. FIG. 1A, samples were subjected to SDS-PAGE and transferred to a nitrocellulose filter, probed with a monoclonal anti-CPP32 antibody, and the antigen/antibody complex was visualized by the ECL method. The filter was exposed to Kodak X-OMAT AR X-ray film for 1 min. In FIG. 1B, an aliquot of 10 μl of in vitro translated, ^35S-labeled PARP was added to each reaction. After 5 min, the samples were subjected to SDS-PAGE and transferred to a nitrocellulose filter. The filter was exposed to film for 2 hr at room temperature. In FIG. 1C, a 5 μl aliquot of in vitro translated, ^35S-labeled SREBP-2 was added to each reaction. After incubation at 30° C. for 30 min, the samples were subjected to SDS-PAGE, the gel was dried and exposed to film for 2 hr at room temperature. In FIG. 1D, a 50 μlaliquot of HeLa cell S-100 (250 μg) was incubated with 6 μl Hamster Liver nuclei in the absence (lane 1), or presence of 1 mM ATP (lane 2) or dATP (lane 3) for 2 hr at 37° C. in a final volume of 60 μl of buffer A. DNA was isolated as described in the Examples and size-separated by agarose gel electrophoresis (2% agarose), and the DNA was visualized by ethidium bromide staining.
Activation of CPP32 and DNA fragmentation are two well characterized biochemical markers of apoptosis and its initiation. With the goal of producing an in vitro system that duplicates apoptosis, we prepared 100,000×g cytosolic supernatant (S-100) from suspension cultures of HeLa cells. The activation of CPP32 is the result of cleavage of its 32 kDa precursor into the 20 kDa NH2-terminal fragment and 11 kDa COOH-terminal fragment [Nicholson et al. (1995) supra], thus the activation of CPP32 in the HeLa cell S-100 was monitored by Western blot analysis using a monoclonal antibody against the 20 kDa fragment of CPP32 (FIG. 1A). The enzymatic activity of CPP32 was assayed by measuring the cleavage of two ^35S-labeled substrates, PARP (FIG. 1B) and SREBP-2 (FIG. 1C). DNA fragmentation was assayed by incubating the HeLa cell S-100 with nuclei isolated from hamster liver followed by genomic DNA extraction and analysis by agarose gel electrophoresis. […] The sizes of the cleaved products of PARP and SREBP-2 were the same as observed in cells undergoing apoptosis [Kaufmann et al. (1993) Cancer Res. 53, 3976-3985; Wang et al. (1996) supra]. […]
(A western blot detects proteins with antibodies after separation by electrophoresis.)

Entries after “also recorded” stand apart in the source; their conditions may differ.

Take `CN[C@@H]1C[C@H]2O[C@@](C)([C@@H]1OC)n1c3ccccc3c3c4c(c5c6ccccc6n2c5c31)C(=O)NC4` [staurosporine]: the “activation of endogenous CPP32 detected by cleavage of PARP” value in the assay with HeLa cells is recorded as “resulted in activation of the endogenous CPP32”. Moreover, the “cytochrome c in S-cytosol” value in the assay on HeLa cells (vs non-treated cells) is listed as “increased release of cytochrome c to the cytosol; also recorded: markedly elevated cytochrome c; also recorded: increased cytosolic cytochrome c”. In addition, the initiation of apoptosis result in the assay on variety of cell types is “potent apoptosis inducer”. The “cytochrome c in cytosol / CPP32 activation” value in the assay on U937 cells is “The same phenomenon was also observed”.

As for `Nc1ncnc2c1ncn2[C@@H]1O[C@H](COP(=O)(O)OP(=O)(O)OP(=O)(O)O)[C@@H](O)[C@H]1O` [ATP], the “DNA fragmentation in hamster liver nuclei” value in the assay with hamster liver nuclei is “Such fragmentation did not occur”. The “activation of CPP32 in HeLa cell S-100” value in the assay with CPP32 is on record as “no activation of CPP32 was observed”.
